# Assays:
# [1] = target: T1, Nuclear receptor subfamily 4 group A member 2 (Homo sapiens, UniProt P43354); assay: Binding affinity towards Nurr1 ligand binding domain (unknown origin) measured by tryptophan fluorescence spectroscopy
# [2] = target: T1, Nuclear receptor subfamily 4 group A member 2; assay: Antagonist activity at full length human Nurr1 expressed in HEK293T cells co-expressing 3xNBRE3-luciferase at 50 uM incubated for 18 hrs by luciferase transactivation assay relative to control; assay type: cell-based; parameters: scale not given: the % may be the effect or the level left
# [3] = target: T1, Nuclear receptor subfamily 4 group A member 2; assay: Antagonist activity at full length human Nurr1 expressed in MN9D cells co-expressing 3xNBRE3-luciferase at 50 uM incubated for 18 hrs by luciferase transactivation assay relative to control; assay type: cell-based; parameters: scale not given: the % may be the effect or the level left
# [4] = target: T1, Nuclear receptor subfamily 4 group A member 2; assay: Agonist activity at Nurr1 ligand binding domain (unknown origin) measured by Gal4-based reporter gene assay
# [5] = target: T1, Nuclear receptor subfamily 4 group A member 2; assay: Agonist activity at human Nurr1 measured by Gal4-Nurr1 hybrid reporter gene assay
# [6] = target: T1, Nuclear receptor subfamily 4 group A member 2; assay: Agonist activity at Nurr1 in human SK-N-BE(2)-C cells measured by NBRE-based luciferase reporter gene assay; assay type: cell-based
# [7] = target: T1, Nuclear receptor subfamily 4 group A member 2; assay: Agonist activity at Nurr1 in human SK-N-BE(2)-C cells measured by Gal4-based luciferase reporter gene assay; assay type: cell-based
# [8] = target: T2, Nuclear receptor subfamily 4 group A member 2 (Mus musculus, UniProt Q06219); assay: Agonist activity at Nurr1 in mouse MN9D cells measured by NBRE-based luciferase reporter gene assay; assay type: cell-based
# T2 sequence (Q06219 whole entry, the tested form may be a part): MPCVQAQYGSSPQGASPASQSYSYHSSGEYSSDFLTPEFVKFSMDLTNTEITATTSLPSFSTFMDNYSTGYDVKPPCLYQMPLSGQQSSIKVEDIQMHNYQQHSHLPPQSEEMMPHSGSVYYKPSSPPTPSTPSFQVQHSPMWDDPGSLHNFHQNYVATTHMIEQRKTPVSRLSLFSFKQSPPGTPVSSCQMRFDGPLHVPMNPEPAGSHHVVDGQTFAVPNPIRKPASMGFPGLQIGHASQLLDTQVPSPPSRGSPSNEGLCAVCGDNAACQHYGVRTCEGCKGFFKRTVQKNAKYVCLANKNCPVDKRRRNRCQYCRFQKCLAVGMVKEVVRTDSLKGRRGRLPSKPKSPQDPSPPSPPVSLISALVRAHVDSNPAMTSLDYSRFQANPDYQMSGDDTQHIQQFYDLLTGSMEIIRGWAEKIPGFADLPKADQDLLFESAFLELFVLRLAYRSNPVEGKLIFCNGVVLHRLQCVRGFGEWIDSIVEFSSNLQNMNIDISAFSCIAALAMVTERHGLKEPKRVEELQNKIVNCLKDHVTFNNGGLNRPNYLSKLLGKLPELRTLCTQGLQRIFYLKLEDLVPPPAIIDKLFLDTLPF
# [9] = target: T2, Nuclear receptor subfamily 4 group A member 2; assay: Agonist activity at Nurr1 in mouse MN9D cells measured by Gal4-based luciferase reporter gene assay; assay type: cell-based
# [10] = target: T3, Nuclear receptor subfamily 4 group A member 2 (Rattus norvegicus, UniProt Q07917); assay: Agonist activity at Nurr1 in rat N27-A cells measured by NBRE-based luciferase reporter gene assay; assay type: cell-based
# T3 sequence (Q07917 whole entry, the tested form may be a part): as the sequence (Q06219 whole entry, the tested form may be a part) above, with S134G, P182R counted along it
# [11] = target: T3, Nuclear receptor subfamily 4 group A member 2; assay: Agonist activity at Nurr1 in rat N27-A cells measured by Gal4-based luciferase reporter gene assay; assay type: cell-based
# T1 sequence (P43354 whole entry, the tested form may be a part): as the sequence (Q06219 whole entry, the tested form may be a part) above, with S131T, S134G, D354E counted along it
smiles,measurement,setting,value
CCCCC/C=C\C/C=C\C/C=C\C/C=C\CCCC(=O)O [ARACHIDONIC ACID],Kd,[1],50 µM
CC/C=C\C/C=C\C/C=C\C/C=C\C/C=C\C/C=C\CCC(=O)O,Activity,[2],25%
same,Activity,[3],25%
CCN(CC)Cc1cc(Nc2ccnc3cc(Cl)ccc23)ccc1O [AMODIAQUINE],EC50,[4],20 µM
Fc1ccc(-c2c[nH]c3ccccc23)cc1,EC50,[5],7.7 µM
CCCCC[C@H](O)/C=C/[C@H]1[C@H](O)CC(=O)[C@@H]1CCCCCCC(=O)O [ALPROSTADIL],EC50,[6],3 µM
same,EC50,[7],3 µM
same,EC50,[8],3 µM
same,EC50,[9],3 µM
same,EC50,[10],3 µM
same,EC50,[11],3 µM
CCCCCCCC/C=C\CCCCCCCC(=O)O [OLEIC ACID],Kd,[1],50 µM
CCCCC/C=C\C/C=C\CCCCCCCC(=O)O [LINOLEIC ACID],Kd,[1],50 µM
CCCCC[C@H](O)/C=C/[C@H]1C=CC(=O)[C@@H]1CCCCCCC(=O)O [PROSTAGLANDIN A1],EC50,[6],5 µM
same,EC50,[7],5 µM
same,EC50,[8],5 µM
same,EC50,[9],5 µM
same,EC50,[10],5 µM
same,EC50,[11],5 µM

# From ChEMBL document CHEMBL5137063, “Medicinal Chemistry and Chemical Biology of Nurr1 Modulators: An Emerging Strategy in Neurodegeneration” (J Med Chem, 2022)
